Here are results for six molecules from patent US5698411A, “Method for determining activity of enzymes in metabolically active whole cells” (priority 1995, dated 1997).

Numbered stars: 1 amine (or outer) side, 2 acyl side, 3 side chain; on linkers, the order of the positions; unused ones are H or OH. Bridge positions count the residues as written; N and C are the ends. Peptide text beside a SMILES is read from it. I, II: the chains in the order shown. Rhodamine110 = O=C1OC2(c3ccc(N[*:1])cc3Oc3cc(N[*:2])ccc32)c2ccccc21

Common to all, as to type: cell-based, human
One experiment deals with lymphocytes. The experiment in a line: aberrant enzyme activities in febrile children, lymphocytes (Table 7).
A further experiment has as its system monocytes. Description: aberrant enzyme activities in febrile children, monocytes (Table 7).
Another experiment deals with granulocytes. The experiment in a line: aberrant enzyme activities in febrile children, granulocytes (Table 7).
[1] abbreviates: P88 Enteritis, listed as Z-Gly/Pro.

`O=C(NCC(=O)N1CCC[C@H]1C(=O)Nc1ccc2c(c1)Oc1cc(NC(=O)[C@@H]3CCCN3C(=O)CNC(=O)OCc3ccccc3)ccc1C21OC(=O)c2ccccc21)OCc1ccccc1` [Z-GP, (carbobenzyloxycarbonyl-Gly-Pro)2 Rho 110]: the “aberrant enzyme activity, LYMPHS” value with lymphocytes (setting [1]) is on record as “.smallcircle”; in the experiment with lymphocytes (P89 Viral Stomatitis), “- (>0.25 Decrease over normal range)”; with lymphocytes (P92 Adenitis) it was “- (>0.25 Decrease over normal range)”; in the experiment with lymphocytes (P95 Viral Syndrome), “- (>0.25 Decrease over normal range)”; in the experiment on lymphocytes (P96 Viral Syndrome), “- (>0.25 Decrease over normal range)”; in the experiment on lymphocytes (P97 Pyelonephritis, listed as Z-Gly/Pro), “.smallcircle”. Moreover, the “aberrant enzyme activity, LYMPHS” value in the experiment on lymphocytes (P101 Fever -- Unknown Origin) and in the experiment with lymphocytes (P103 Viral Syndrome) was “- (>0.25 Decrease over normal range)” throughout. Further, the “aberrant enzyme activity, MONOS” value with monocytes (setting [1]) is reported as “.smallcircle”; in the experiment on monocytes (P89 Viral Stomatitis) it was “.smallcircle”; in the experiment with monocytes (P92 Adenitis) it was “- (>0.25 Decrease over normal range)”; in the experiment with monocytes (P95 Viral Syndrome), “.smallcircle”; in the experiment with monocytes (P96 Viral Syndrome), “.smallcircle”; in the experiment on monocytes (P97 Pyelonephritis), “.smallcircle”. The “aberrant enzyme activity, MONOS” value with monocytes (P99 Viral Syndrome) is listed as “.smallcircle”; in the experiment with monocytes (P101 Fever -- Unknown Origin), “- (>0.25 Decrease over normal range)”; with monocytes (P102 UTI), “.smallcircle”; in the experiment on monocytes (P103 Viral Syndrome) it was “.smallcircle”. Also, the “aberrant enzyme activity, GRANS” value in the experiment with granulocytes (setting [1]) is “.smallcircle”; in the experiment on granulocytes (P92 Adenitis), “- (>0.25 Decrease over normal range)”; in the experiment on granulocytes (P95 Viral Syndrome) it was “- (>0.25 Decrease over normal range)”; with granulocytes (P96 Viral Syndrome), “.smallcircle”; in the experiment on granulocytes (P97 Pyelonephritis), “.smallcircle”; in the experiment with granulocytes (P99 Viral Syndrome) it was “.smallcircle”. Moreover, in the experiment on granulocytes (P103 Viral Syndrome), the “aberrant enzyme activity, GRANS” value is given as “.smallcircle”.

As for `N[C@@H](CC(=O)O)C(=O)Nc1ccc2c(c1)Oc1cc(NC(=O)[C@@H](N)CC(=O)O)ccc1C21OC(=O)c2ccccc21` [ASP, (H-L-Asp)2 --Rho 110 .2TFA], the “aberrant enzyme activity, LYMPHS” value in the experiment on lymphocytes (P92 Adenitis), in the experiment with lymphocytes (P97 Pyelonephritis) and in the experiment on lymphocytes (P103 Viral Syndrome) was “.smallcircle” each time. The “aberrant enzyme activity, MONOS” value in the experiment on monocytes (P92 Adenitis), in the experiment on monocytes (P97 Pyelonephritis) and in the experiment on monocytes (P103 Viral Syndrome) was “.smallcircle” throughout. The “aberrant enzyme activity, GRANS” value with granulocytes (P92 Adenitis), with granulocytes (P97 Pyelonephritis) and in the experiment with granulocytes (P103 Viral Syndrome) was “.smallcircle” each time.

In the case of `CC(C)C[C@H](NC(=O)CNC(=O)[C@@H](N)CC(C)C)C(=O)NCC(=O)Nc1ccc2c(c1)Oc1cc(NC(=O)CNC(=O)[C@H](CC(C)C)NC(=O)CNC(=O)[C@@H](N)CC(C)C)ccc1C21OC(=O)c2ccccc21` [LGLG, (H-L-Leu--Gly--Leu--Gly)2 Rho 110 .2TFA] (I: H-LGLG / II: H-LGLG; linker I:C-II:C via Rhodamine110), the “aberrant enzyme activity, LYMPHS” value in the experiment with lymphocytes (P92 Adenitis), in the experiment on lymphocytes (P97 Pyelonephritis) and in the experiment on lymphocytes (P103 Viral Syndrome) was “.smallcircle” each time. Besides, the “aberrant enzyme activity, MONOS” value in the experiment with monocytes (P92 Adenitis), in the experiment with monocytes (P97 Pyelonephritis) and in the experiment with monocytes (P103 Viral Syndrome) was “.smallcircle” each time. For the same molecule, the “aberrant enzyme activity, GRANS” value in the experiment on granulocytes (P92 Adenitis), with granulocytes (P97 Pyelonephritis) and in the experiment with granulocytes (P103 Viral Syndrome) was “.smallcircle” throughout.

For `C[C@H](NC(=O)OCc1ccccc1)C(=O)NCC(=O)Nc1ccc2c(c1)Oc1cc(NC(=O)CNC(=O)[C@H](C)NC(=O)OCc3ccccc3)ccc1C21OC(=O)c2ccccc21` [Z-AG, (Z-Ala--Gly)2 Rho 110], the “aberrant enzyme activity, LYMPHS” value in the experiment on lymphocytes (P99 Viral Syndrome), with lymphocytes (P102 UTI) and in the experiment on lymphocytes (P103 Viral Syndrome) was “.smallcircle” in each case. Moreover, the “aberrant enzyme activity, MONOS” value in the experiment with monocytes (P89 Viral Stomatitis), in the experiment with monocytes (P95 Viral Syndrome), with monocytes (P96 Viral Syndrome), in the experiment on monocytes (P97 Pyelonephritis), in the experiment with monocytes (P99 Viral Syndrome) and in the experiment with monocytes (P102 UTI) was “.smallcircle” each time. Also, the “aberrant enzyme activity, MONOS” value in the experiment with monocytes (P103 Viral Syndrome) is given as “.smallcircle”. For the same molecule, the “aberrant enzyme activity, GRANS” value in the experiment on granulocytes (P89 Viral Stomatitis), with granulocytes (P92 Adenitis), with granulocytes (P95 Viral Syndrome), with granulocytes (P96 Viral Syndrome), in the experiment with granulocytes (P97 Pyelonephritis) and with granulocytes (P99 Viral Syndrome) was “.smallcircle” throughout. The “aberrant enzyme activity, GRANS” value in the experiment on granulocytes (P102 UTI) and in the experiment with granulocytes (P103 Viral Syndrome) was “.smallcircle” throughout.

As to `C[C@@H](O)[C@H](NC(=O)OCc1ccccc1)C(=O)N1CCC[C@H]1C(=O)Nc1ccc2c(c1)Oc1cc(NC(=O)[C@@H]3CCCN3C(=O)[C@@H](NC(=O)OCc3ccccc3)[C@@H](C)O)ccc1C21OC(=O)c2ccccc21` [Z-TP6.5, (carbobenzyloxycarbonyl-Thr-Pro)2 Rho 110 (pH 6.5)], the “aberrant enzyme activity, LYMPHS” value with lymphocytes (P88 Enteritis) is “- (>0.25 Decrease over normal range)”; with lymphocytes (P89 Viral Stomatitis) it was “- (>0.25 Decrease over normal range)”; with lymphocytes (P92 Adenitis) it was “- (>0.25 Decrease over normal range)”; in the experiment with lymphocytes (P97 Pyelonephritis) it was “.smallcircle”; in the experiment on lymphocytes (P103 Viral Syndrome), “.smallcircle”. Moreover, the “aberrant enzyme activity, MONOS” value with monocytes (P88 Enteritis) is recorded as “- (>0.25 Decrease over normal range)”; in the experiment on monocytes (P89 Viral Stomatitis) it was “- (>0.25 Decrease over normal range)”; in the experiment on monocytes (P92 Adenitis), “- (>0.25 Decrease over normal range)”; in the experiment with monocytes (P97 Pyelonephritis), “.smallcircle”; with monocytes (P103 Viral Syndrome), “.smallcircle”. The “aberrant enzyme activity, GRANS” value in the experiment on granulocytes (P88 Enteritis) was “- (>0.25 Decrease over normal range)”; with granulocytes (P89 Viral Stomatitis), “- (>0.25 Decrease over normal range)”; in the experiment with granulocytes (P92 Adenitis), “- (>0.25 Decrease over normal range)”; in the experiment with granulocytes (P103 Viral Syndrome), “.smallcircle”.

As to `N[C@@H](CO)C(=O)Nc1ccc2c(c1)Oc1cc(NC(=O)[C@@H](N)CO)ccc1C21OC(=O)c2ccccc21` [SER, (H-L-Ser)2 Rho 110 .2TFA], the “aberrant enzyme activity, LYMPHS” value in the experiment with lymphocytes (P92 Adenitis), in the experiment with lymphocytes (P97 Pyelonephritis) and in the experiment on lymphocytes (P103 Viral Syndrome) was “.smallcircle” throughout. For the same molecule, the “aberrant enzyme activity, MONOS” value with monocytes (P92 Adenitis) and in the experiment with monocytes (P97 Pyelonephritis) was “.smallcircle” in each case. Further, the “aberrant enzyme activity, GRANS” value in the experiment on granulocytes (P97 Pyelonephritis) and in the experiment with granulocytes (P103 Viral Syndrome) was “.smallcircle” in each case.
